Assay [1] has as its target T1, estrogen receptor alpha (ESR1) in MCF7 breast cancer cells (Homo sapiens, UniProt P03372).
T1 sequence (P03372 1-595): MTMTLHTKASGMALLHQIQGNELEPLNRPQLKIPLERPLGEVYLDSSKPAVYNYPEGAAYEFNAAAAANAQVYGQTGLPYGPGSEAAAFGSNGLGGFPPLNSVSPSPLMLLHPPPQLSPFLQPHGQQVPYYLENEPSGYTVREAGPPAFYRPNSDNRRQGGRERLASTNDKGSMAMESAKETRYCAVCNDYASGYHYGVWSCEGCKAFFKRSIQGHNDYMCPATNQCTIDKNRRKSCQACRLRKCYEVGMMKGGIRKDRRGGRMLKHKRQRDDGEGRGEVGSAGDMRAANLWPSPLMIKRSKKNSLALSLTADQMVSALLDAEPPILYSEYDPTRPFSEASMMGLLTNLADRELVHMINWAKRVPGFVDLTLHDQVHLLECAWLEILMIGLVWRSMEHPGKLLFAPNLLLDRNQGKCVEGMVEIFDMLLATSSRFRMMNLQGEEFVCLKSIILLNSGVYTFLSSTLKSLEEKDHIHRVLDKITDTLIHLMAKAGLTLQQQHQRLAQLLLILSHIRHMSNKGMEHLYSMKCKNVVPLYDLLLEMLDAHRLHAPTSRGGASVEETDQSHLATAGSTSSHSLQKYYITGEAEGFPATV
The assay is described as follows: Breast Cancer Cell ERa High Content Fluorescence Imaging Degradation Assay (ER-alpha MCF7 HCS). Details: MCF7 breast cancer cells were seeded on day 1 at a density of 10,000 cells per well; endogenous in cells; host or cells: MCF7 breast cancer cells. As to conditions: 4 hours, plateau of the maximal effect, DMSO and fulvestrant define 0% and 100% change in ESR1, Table 1b. The assay is classed as cell-based. The method, then:
All of the exemplary Formula I, II, and III compounds in Tables 1a and 1b were made and characterized by LCMS [M+H]^+ (liquid chromatography mass spectroscopy) with detection of parent ion. All of the exemplary Formula I, II, and III compounds in Tables 1a and 1b were tested for binding to ERa (Estrogen Receptor alpha) and biological activity according to the assays, protocols, and procedures of Examples 901-907. ER-alpha MCF7 HCS Sinf (%) values in Tables 1a and 1b were measured by the Breast Cancer Cell ERa High Content Fluorescence Imaging Degradation Assay of Example 901. ER-alpha MCF7 HCS EC50 (μM) values in Tables 1a and 1b were measured by the in vitro cell proliferation assays described in Examples 902 and 903. The rat uterine wet weight assays of Examples 906 and 907 allow rapid determination of compound antagonist activity in an ER responsive tissue (immature rat uterus) while competing against the native ER ligand estradiol, i.e. antagonist mode (Ashby, J.; et al (1997) Regulatory toxicology and pharmacology: RTP, 25 (3):226-31). […]
MCF7 breast cancer cells were seeded on day 1 at a density of 10,000 cells per well in 384 well poly-lysine coated tissue culture plate (Greiner # T-3101-4), in 50 μL/well RPMI (phenol red free), 10% FBS (Charcoal stripped), containing L-glutamine. […] Quantitative fluorescence imaging of ESR1 was carried out using a Cellomics Arrayscan V (Thermo). […]

The target in assay [2] is T1, estrogen receptor alpha (ESR1) in MCF7 breast cancer cells. Described as above. It is filed as cell-based. The settings on record: 4 hours, plateau of the maximal effect; for ERalpha (WT) MCF7HCS (Sinf): DMSO and fulvestrant define 0% and 100% change in ESR1, Table 1b; for ER-alpha MCF7HCS Sinf: DMSO and fulvestrant define 0% and 100% change in ESR1, Table 1a. Details: endogenous in cells; host or cells: MCF7 breast cancer cells; key to ERalpha (WT) MCF7HCS (Sinf): % change in ERα level; DMSO = 0%, fulvestrant = 100% change. The method in brief: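 MCF7 cells in phenol red-free RPMI with 10% charcoal-stripped FBS were exposed 4 h at 37 °C to 10-point 1.8× dilutions (0.05–835 nM final, 0.84% DMSO); fulvestrant served as control. After fixation, ESR1 was immunostained (F10 mAb, Alexa488) with Hoechst nuclear masking, and nuclear ESR1 fluorescence was quantified by imaging.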

In the case of `C[C@@H]1Cc2oc3ccccc3c2[C@@H](c2c(F)cc(OCCN3CC(CF)C3)cc2F)N1CC(F)(F)CO` [Example 170], in assay [1], the “ERalpha (WT) MCF7HCS (Sinf)” value is −93.
Turning to `COc1cc2c3c([nH]c2cn1)[C@@H](c1c(F)cc(NC2CN(CCCF)C2)cc1F)N(CC(F)(F)CO)[C@H](C)C3` [Example 161, 3-((1R,3R)-1-(2,6-Difluoro-4-((1-(3-fluoropropyl)azetidin-3-yl)amino)phenyl)-6-methoxy-3-methyl-3,4-dihydro-1H-pyrrolo[2,3-c:5,4-c′]dipyridin-2(9H)-yl)-2,2-difluoropropan-1-ol], in assay [2], the “ERalpha (WT) MCF7HCS (Sinf)” value was −97.3.
As to `C[C@@H]1Cn2c(cc3ccccc32)[C@@H](c2c(F)cc(OC3CN(CCCF)C3)cc2F)N1CC(F)(F)F` [Example 141, (1R,3R)-1-(2,6-difluoro-4-((1-(3-fluoropropyl)azetidin-3-yl)oxy)phenyl)-3-methyl-2-(2,2,2-trifluoroethyl)-1,2,3,4-tetrahydropyrazino[1,2-a]indole], the “ER-alpha MCF7HCS Sinf” value in assay [2] is −103%.
`C[C@H]1CCN(CC(C)(C)F)[C@H](c2c(F)cc(OCCN3CC(CF)C3)cc2F)c2[nH]c3ccccc3c21` [Example 125, (1R,5S)-1-(2,6-difluoro-4-(2-(3-(fluoromethyl)azetidin-1-yl)ethoxy)phenyl)-2-(2-fluoro-2-methylpropyl)-5-methyl-1,2,3,4,5,10-hexahydroazepino[3,4-b]indole]: the “ER-alpha MCF7HCS Sinf” value in assay [2] is −101%.
As to `C[C@@H]1Cn2c(cc3ccccc32)[C@@H](c2c(F)cc(NC3CN(CCCF)C3)cc2F)N1CC(F)(F)F` [Example 146, N-(3,5-Difluoro-4-((1R,3R)-3-methyl-2-(2,2,2-trifluoroethyl)-1,2,3,4-tetrahydropyrazino[1,2-a]indol-1-yl)phenyl)-1-(3-fluoropropyl)azetidin-3-amine], the “ER-alpha MCF7HCS Sinf” value in assay [2] is listed as −100%.
Take `C[C@H]1Cc2sc3ccccc3c2[C@H](c2c(F)cc(NC3CN(CCCF)C3)cc2F)N1CC(F)(F)CO` [Example 165, 3-((1S,3S)-1-(2,6-difluoro-4-((1-(3-fluoropropyl)azetidin-3-yl)amino)phenyl)-3-methyl-3,4-dihydrobenzo[4,5]thieno[3,2-c]pyridin-2(1H)-yl)-2,2-difluoropropan-1-ol]: the “ERalpha (WT) MCF7HCS (Sinf)” value in assay [2] was −92.3.

These data come from patent publication US10654867B2 (Genentech, Inc., priority 2016, dated 2020).
